Assay [1] concerns the target EGFR L858R/T790M/C797S (Homo sapiens, UniProt P00533, C797S/L858R/T790M). Put plainly: Biochemical EGFR kinase assay (Lance Ultra TR-FRET), triple mutant L858R/T790M/C797S. The method, boiled down: (§1)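 Enzyme reactions lasted 1 hour at room temperature with test compounds between 0.003 and 10 μM, followed by 10 mM EDTA quench.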
Assay [2] concerns the target EGFR L858R/C797S (Homo sapiens, UniProt P00533, C797S/L858R). Description: Biochemical EGFR kinase assay (Lance Ultra TR-FRET), double mutant L858R/C797S. The procedure, abridged:
as §1

Assay [3] has as its target EGFR del19/C797S (Homo sapiens, UniProt P00533, C797S/DEL746-750). Put plainly: Biochemical EGFR kinase assay (Lance Ultra TR-FRET), double mutant del19/C797S. The method, boiled down:
as §1

Assay [4] addresses EGFR del19/T790M/C797S (Homo sapiens, UniProt P00533, C797S/DEL746-750/T790M). Put plainly: Biochemical EGFR kinase assay (Lance Ultra TR-FRET), triple mutant del19/T790M/C797S. The method, boiled down: as §1
Assay [5] addresses EGFR wildtype (WT) (Homo sapiens, UniProt P00533). Put plainly: Biochemical EGFR kinase assay (Lance Ultra TR-FRET), wildtype. The procedure, abridged:
as §1

Where [6] appears, read: IC50 L858R/T790M/C797S (nM) 100 μM ATP, 100 μM ATP.
Where [7] appears, read: Km ATP, read-out: IC50 L858R/T790M/C797S (nM) Km ATP.
The mark [8] stands for this setting: IC50 L858R/C797S (nM) 100 μM ATP, 100 μM ATP.
The mark [9] stands for this setting: Km ATP, read-out: IC50 L858R/C797S (nM) Km ATP.
Setting [10] is: IC50 del19/C797S (nM) 100 μM ATP, 100 μM ATP.
Setting [11] is: Km ATP, read-out: IC50 del19/C797S (nM) Km ATP.
Where [12] appears, read: IC50 del19/T790M/C797S (nM) 100 μM ATP, 100 μM ATP.
Setting [13] is: Km ATP, read-out: IC50 del19/T790M/C797S (nM) Km ATP.
Setting [14] is: IC50 WT (nM) 100 μM ATP, 100 μM ATP.
Where [15] appears, read: Km ATP, read-out: IC50 WT (nM) Km ATP.

Results on six compounds are retold here after patent publication US12258327B2, “5-membered heteroaryl-containing aminopyridine compounds as EGFR inhibitors” (YUHAN CORPORATION, priority 2021, dated 2025).

The structures appear in SMILES notation. Read-outs that look alike come from different tables or passages of the source.

EGFR wildtype (WT), sequence (P00533 25-1210): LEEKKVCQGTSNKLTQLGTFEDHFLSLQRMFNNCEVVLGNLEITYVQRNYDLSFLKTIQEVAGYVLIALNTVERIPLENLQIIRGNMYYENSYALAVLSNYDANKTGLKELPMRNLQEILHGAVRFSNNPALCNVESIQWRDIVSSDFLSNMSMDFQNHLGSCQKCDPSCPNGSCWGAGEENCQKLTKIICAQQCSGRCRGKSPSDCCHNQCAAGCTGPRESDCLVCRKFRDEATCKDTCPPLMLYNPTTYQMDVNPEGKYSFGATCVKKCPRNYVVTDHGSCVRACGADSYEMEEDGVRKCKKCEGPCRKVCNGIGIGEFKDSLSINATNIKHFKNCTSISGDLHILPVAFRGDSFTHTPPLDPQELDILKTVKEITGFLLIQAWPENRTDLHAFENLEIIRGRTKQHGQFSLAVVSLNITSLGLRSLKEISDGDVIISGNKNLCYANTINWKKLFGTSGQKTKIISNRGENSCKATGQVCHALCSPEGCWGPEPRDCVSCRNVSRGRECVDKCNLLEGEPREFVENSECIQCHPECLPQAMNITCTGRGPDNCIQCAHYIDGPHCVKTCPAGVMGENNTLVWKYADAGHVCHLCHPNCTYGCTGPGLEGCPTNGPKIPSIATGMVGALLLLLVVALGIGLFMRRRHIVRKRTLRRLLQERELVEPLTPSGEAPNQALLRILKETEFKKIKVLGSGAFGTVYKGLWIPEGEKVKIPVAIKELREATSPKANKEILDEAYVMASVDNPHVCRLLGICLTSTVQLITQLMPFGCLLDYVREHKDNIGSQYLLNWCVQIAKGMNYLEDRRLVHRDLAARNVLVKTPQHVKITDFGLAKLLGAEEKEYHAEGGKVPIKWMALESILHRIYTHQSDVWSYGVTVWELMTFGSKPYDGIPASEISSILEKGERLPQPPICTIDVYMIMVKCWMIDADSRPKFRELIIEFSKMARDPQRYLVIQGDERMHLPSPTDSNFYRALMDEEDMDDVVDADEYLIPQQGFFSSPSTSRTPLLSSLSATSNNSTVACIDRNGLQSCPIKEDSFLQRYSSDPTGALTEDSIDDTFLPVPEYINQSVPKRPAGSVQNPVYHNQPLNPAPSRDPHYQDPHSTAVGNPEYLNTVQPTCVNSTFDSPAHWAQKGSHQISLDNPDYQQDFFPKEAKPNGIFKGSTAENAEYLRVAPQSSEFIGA
EGFR del19/C797S, sequence (P00533 with tags, fused parts or gaps DEL746-750/C797S): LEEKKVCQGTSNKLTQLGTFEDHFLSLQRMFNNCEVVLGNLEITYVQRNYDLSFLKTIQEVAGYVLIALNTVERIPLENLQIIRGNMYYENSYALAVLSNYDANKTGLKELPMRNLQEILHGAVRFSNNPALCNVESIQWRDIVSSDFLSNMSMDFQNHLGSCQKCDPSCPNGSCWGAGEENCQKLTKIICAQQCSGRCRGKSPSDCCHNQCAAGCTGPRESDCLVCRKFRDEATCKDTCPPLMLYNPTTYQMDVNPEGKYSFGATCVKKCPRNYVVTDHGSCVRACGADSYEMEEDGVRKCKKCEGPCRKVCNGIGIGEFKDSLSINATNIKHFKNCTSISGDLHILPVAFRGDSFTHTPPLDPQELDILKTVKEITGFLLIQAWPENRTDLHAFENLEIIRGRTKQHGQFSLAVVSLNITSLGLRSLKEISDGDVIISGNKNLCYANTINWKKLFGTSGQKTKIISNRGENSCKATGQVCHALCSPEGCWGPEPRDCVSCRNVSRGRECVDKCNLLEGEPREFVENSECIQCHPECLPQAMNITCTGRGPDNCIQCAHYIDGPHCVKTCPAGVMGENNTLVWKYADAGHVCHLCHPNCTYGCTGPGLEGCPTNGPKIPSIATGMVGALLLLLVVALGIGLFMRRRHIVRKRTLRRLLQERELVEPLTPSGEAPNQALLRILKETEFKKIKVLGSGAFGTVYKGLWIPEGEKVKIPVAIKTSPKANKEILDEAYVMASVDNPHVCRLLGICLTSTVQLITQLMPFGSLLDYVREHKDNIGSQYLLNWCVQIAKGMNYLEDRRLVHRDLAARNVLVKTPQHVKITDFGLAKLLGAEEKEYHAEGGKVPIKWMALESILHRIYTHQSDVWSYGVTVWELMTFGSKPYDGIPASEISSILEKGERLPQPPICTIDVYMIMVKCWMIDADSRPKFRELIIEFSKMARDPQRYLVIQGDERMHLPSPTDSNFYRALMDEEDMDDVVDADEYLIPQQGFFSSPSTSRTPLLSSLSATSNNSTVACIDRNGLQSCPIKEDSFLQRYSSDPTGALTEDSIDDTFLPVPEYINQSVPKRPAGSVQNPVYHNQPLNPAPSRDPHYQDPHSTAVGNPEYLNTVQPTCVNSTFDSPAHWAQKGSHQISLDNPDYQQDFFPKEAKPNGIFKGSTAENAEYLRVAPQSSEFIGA
EGFR del19/T790M/C797S, sequence (P00533 with tags, fused parts or gaps DEL746-750/T790M/C797S): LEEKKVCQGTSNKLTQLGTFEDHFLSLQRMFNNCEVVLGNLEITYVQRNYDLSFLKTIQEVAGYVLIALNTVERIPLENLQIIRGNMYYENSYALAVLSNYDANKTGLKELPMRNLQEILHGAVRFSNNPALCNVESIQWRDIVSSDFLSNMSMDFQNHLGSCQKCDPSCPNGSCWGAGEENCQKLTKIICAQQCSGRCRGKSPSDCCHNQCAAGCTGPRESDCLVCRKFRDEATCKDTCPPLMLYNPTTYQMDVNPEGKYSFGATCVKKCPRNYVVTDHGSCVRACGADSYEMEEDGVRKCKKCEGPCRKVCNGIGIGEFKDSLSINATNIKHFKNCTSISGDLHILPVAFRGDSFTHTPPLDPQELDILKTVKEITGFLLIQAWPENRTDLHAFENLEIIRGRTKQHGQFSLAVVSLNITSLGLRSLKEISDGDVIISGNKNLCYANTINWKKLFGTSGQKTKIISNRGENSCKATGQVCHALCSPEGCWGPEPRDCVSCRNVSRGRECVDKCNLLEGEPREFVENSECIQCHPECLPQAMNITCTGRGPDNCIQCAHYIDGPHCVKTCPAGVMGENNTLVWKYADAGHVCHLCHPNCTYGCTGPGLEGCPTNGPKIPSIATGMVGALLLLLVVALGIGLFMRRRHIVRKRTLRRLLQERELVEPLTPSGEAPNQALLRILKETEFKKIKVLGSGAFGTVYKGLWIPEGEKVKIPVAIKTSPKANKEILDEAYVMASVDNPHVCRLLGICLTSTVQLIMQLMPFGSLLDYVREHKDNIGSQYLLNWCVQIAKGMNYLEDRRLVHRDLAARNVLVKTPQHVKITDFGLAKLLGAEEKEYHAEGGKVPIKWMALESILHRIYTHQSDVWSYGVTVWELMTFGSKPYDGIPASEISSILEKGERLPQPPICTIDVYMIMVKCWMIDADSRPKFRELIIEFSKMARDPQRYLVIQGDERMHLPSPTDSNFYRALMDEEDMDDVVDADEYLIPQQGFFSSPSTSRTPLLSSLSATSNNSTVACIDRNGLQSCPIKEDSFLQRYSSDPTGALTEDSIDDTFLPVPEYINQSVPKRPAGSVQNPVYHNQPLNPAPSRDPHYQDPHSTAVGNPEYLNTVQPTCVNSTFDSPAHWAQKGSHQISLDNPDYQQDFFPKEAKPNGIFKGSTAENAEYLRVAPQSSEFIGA
EGFR L858R/T790M/C797S, sequence (P00533 25-1210 T790M/C797S/L858R): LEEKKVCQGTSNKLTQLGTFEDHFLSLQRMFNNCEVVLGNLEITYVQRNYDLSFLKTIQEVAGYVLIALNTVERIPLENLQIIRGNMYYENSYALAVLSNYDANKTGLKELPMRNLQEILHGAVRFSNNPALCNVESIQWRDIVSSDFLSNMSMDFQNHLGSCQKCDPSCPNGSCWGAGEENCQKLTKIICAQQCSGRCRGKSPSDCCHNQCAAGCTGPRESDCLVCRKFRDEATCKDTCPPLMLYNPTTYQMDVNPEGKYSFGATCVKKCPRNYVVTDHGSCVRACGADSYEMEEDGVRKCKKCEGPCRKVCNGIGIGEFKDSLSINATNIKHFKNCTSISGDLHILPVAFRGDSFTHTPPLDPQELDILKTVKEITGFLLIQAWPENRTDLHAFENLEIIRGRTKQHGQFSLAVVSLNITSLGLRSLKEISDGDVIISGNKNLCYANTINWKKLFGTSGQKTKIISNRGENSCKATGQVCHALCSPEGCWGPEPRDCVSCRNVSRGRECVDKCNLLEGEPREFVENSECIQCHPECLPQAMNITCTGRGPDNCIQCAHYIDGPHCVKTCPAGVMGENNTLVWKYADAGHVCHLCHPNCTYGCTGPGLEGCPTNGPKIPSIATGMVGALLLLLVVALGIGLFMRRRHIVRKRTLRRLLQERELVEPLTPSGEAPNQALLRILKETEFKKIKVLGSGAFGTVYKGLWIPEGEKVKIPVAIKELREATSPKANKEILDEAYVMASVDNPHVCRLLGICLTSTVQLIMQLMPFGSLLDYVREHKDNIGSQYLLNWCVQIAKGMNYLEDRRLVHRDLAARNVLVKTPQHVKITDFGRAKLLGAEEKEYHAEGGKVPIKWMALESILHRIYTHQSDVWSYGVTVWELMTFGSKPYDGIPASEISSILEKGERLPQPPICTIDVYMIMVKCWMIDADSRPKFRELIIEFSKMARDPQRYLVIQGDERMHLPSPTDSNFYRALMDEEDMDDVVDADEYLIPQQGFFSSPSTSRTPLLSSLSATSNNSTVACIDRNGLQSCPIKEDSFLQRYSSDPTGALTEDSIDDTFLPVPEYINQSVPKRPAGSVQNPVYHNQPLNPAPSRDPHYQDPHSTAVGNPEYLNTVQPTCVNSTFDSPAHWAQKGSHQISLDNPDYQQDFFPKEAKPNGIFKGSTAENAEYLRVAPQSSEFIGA

Consider `C[C@]1(O)CC[C@@H](Nc2cc(Nc3ccnc(-c4cnn(S(=O)(=O)C5CC5)c4)n3)ncc2-c2ccn(C3COC3)n2)CC1` [Example 292, (1s,4s)-4-((2-((2-(1-(Cyclopropylsulfonyl)-1H-pyrazol-4-yl)pyrimidin-4-yl)amino)-5-(1-(oxetan-3-yl)-1H-pyrazol-3-yl)pyridin-4-yl)amino)-1-methylcyclohexan-1-ol], for which the IC50 in assay [1] (setting [6]) was 0.2 nM; in assay [1] (setting [7]) it was 0.1 nM; in assay [2] (setting [8]), 6.6 nM; in assay [2] (setting [9]) it was 0.1 nM; in assay [3] (setting [10]), 0.8 nM; in assay [3] (setting [11]), 0.4 nM. The IC50 stood at 0.2 nM in assay [4] (setting [12]), 0.5 nM in assay [4] (setting [13]) and 6970 nM in assay [5] (setting [14]).

On to `O=S(=O)(C1CC1)n1cc(-c2nccc(Nc3cc(N[C@H]4CC[C@H](CCO)CC4)c(-c4ccn(CC(F)(F)F)n4)cn3)n2)cn1` [Example 270, 2-((1r,4r)-4-((2-((2-(1-(Cyclopropylsulfonyl)-1H-pyrazol-4-yl)pyrimidin-4-yl)amino)-5-(1-(2,2,2-trifluoroethyl)-1H-pyrazol-3-yl)pyridin-4-yl)amino)cyclohexyl)ethan-1-ol], for which the IC50 in assay [1] (setting [6]) amounted to 1.2 nM; in assay [1] (setting [7]) it was 0.7 nM; in assay [2] (setting [8]), 35.4 nM; in assay [2] (setting [9]), 11.2 nM; in assay [3] (setting [10]) it was 2700 nM; in assay [3] (setting [11]), 23.6 nM. The IC50 in assay [4] (setting [12]) was 2.1 nM; in assay [4] (setting [13]), 7.2 nM; in assay [5] (setting [14]), over 10000 nM; in assay [5] (setting [15]), 620 nM.

For `O=S(=O)(C1CC1)n1cc(-c2nccc(Nc3cc(N[C@H]4CC[C@@H](F)CC4)c(-c4ccn(C(F)F)n4)cn3)n2)cn1` [Example 151, N^2-(2-(1-(Cyclopropylsulfonyl)-1H-pyrazol-4-yl)pyrimidin-4-yl)-5-(1-(difluoromethyl)-1H-pyrazol-3-yl)-N^4-((1s,4s)-4-fluorocyclohexyl)pyridine-2,4-diamine], the IC50 in assay [1] (setting [7]) came to 0.9 nM; in assay [2] (setting [9]), 4.7 nM; in assay [3] (setting [11]), 43.5 nM; in assay [4] (setting [13]), 1.6 nM; in assay [5] (setting [15]) it was 72 nM.

Regarding `C[C@]1(O)CC[C@@H](Nc2cc(Nc3nc(-c4cnn(S(=O)(=O)C5CC5)c4)ncc3F)ncc2-c2ccn(CC(F)F)n2)CC1` [Example 345, (1s,4s)-4-((2-((2-(1-(Cyclopropylsulfonyl)-1H-pyrazol-4-yl)-5-fluoropyrimidin-4-yl)amino)-5-(1-(2,2-difluoroethyl)-1H-pyrazol-3-yl)pyridin-4-yl)amino)-1-methylcyclohexan-1-ol], the IC50 in assay [1] (Km ATP, read-out: IC50 L858R/T790M/C797S, Km ATP) worked out at 0.9 nM; in assay [2] (Km ATP, read-out: IC50 L858R/C797S, Km ATP) it was 0.3 nM; in assay [3] (Km ATP, read-out: IC50 del19/C797S, Km ATP), 4.6 nM; in assay [4] (Km ATP, read-out: IC50 del19/T790M/C797S, Km ATP), 0.4 nM; in assay [5] (Km ATP, read-out: IC50 WT, Km ATP), 22.2 nM.

Take `O=S(=O)(C1CC1)n1cc(-c2nccc(Nc3cc(NC4CCC(CCF)CC4)c(-c4ccn(C(F)F)n4)cn3)n2)cn1` (centres unmarked) [Example 216, N^2-(2-(1-(Cyclopropylsulfonyl)-1H-pyrazol-4-yl)pyrimidin-4-yl)-5-(1-(difluoromethyl)-1H-pyrazol-3-yl)-N^4-(4-(2-fluoroethyl)cyclohexyl)pyridine-2,4-diamine]: the IC50 in assay [1] (setting [7]) is 9.1 nM; in assay [2] (setting [9]), 26.5 nM; in assay [3] (setting [11]), 119 nM; in assay [4] (setting [13]), 25.9 nM; in assay [5] (setting [15]), 276 nM.

Regarding `O=S(=O)(C1CC1)n1cc(-c2nccc(Nc3cc(NCC4(CO)COC4)c(-c4ccn(C(F)F)n4)cn3)n2)cn1` [Example 197, (3-(((2-((2-(1-(Cyclopropylsulfonyl)-1H-pyrazol-4-yl)pyrimidin-4-yl)amino)-5-(1-(difluoromethyl)-1H-pyrazol-3-yl)pyridin-4-yl)amino)methyl)oxetan-3-yl)methanol], the IC50 came out at 0.3 nM in assay [1] (setting [6]); 0.1 nM in assay [1] (setting [7]); 70 nM in assay [2] (setting [8]); 2.1 nM in assay [2] (setting [9]); 2.2 nM in assay [3] (setting [10]); 1.1 nM in assay [3] (setting [11]). Besides, the IC50 in assay [4] (setting [12]) was 0.2 nM; in assay [4] (setting [13]) it was 0.1 nM; in assay [5] (setting [14]) it was over 10000 nM; in assay [5] (setting [15]) it was 7.9 nM.
